Measurements from patent US5770624A, “Certain alpha-substituted arylsulfonamido acetohydroxamic acids” (priority 1996, dated 1998).
Structures can show the parent of a compound that is named as a salt.

Legend:
[1] = target: T1, Human recombinant fibroblast collagenase (Homo sapiens, UniProt P03956); test: Collagenase activity (digestion of bovine type I collagen); format: biochemical; conditions: 2 hours at 35° C., read-out: IC50 for inhibition of collagenase activity
T1 sequence (P03956 100-469): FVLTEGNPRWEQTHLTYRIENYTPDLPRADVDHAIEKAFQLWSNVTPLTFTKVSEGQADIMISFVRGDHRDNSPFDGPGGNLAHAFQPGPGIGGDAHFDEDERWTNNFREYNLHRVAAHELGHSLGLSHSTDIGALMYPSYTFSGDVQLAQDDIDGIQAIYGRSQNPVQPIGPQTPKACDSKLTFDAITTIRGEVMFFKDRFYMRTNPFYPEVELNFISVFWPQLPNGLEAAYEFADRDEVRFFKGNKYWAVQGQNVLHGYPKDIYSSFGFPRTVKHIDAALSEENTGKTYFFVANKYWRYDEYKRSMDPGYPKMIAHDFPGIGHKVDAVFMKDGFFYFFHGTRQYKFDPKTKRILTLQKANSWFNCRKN
Procedure: Collagenase activity is determined as follows: ninety six-well, flat-bottom microtiter plates are first coated with bovine type I collagen (35 ug/well) over a two-day period at 30° C. using a humidified and then dry atmosphere; plates are rinsed, air dried for 34 hours, sealed with Saran wrap and stored in a refrigerator. Human recombinant fibroblast collagenase and a test compound (or buffer) are added to wells (total volume =0.1 ml) and plates are incubated for 2 hours at 35° C. under humidified conditions; the amount of collagenase used per well is that causing approximately 80% of maximal digestion of collagen. The incubation media are removed from the wells, which are then rinsed with buffer, followed by water. Coomasie blue stain is added to the wells for 25 minutes, removed, and wells are again rinsed with water. Sodium dodecyl sulfate (20% in 50% dimethylformamide in water) is added to solubilize the remaining stained collagen and the optical density at 570 nm wave length is measured. The decrease in optical density due to collagenase (from that of collagen without enzyme) is compared to the decrease in optical density due to the enzyme in the presence of test compound, and percent inhibition of enzyme activity is calculated. IC50's are determined from a range of concentrations of inhibitors (4-5 concentrations, each tested in triplicate), and Ki values are calculated.

[2] = tested on: TNF-alpha (synovial fluid); test: Effect on the synovial fluid concentration of TNF-alpha in an inflamed rat knee; format: in vivo, rat (Female lewis); conditions: 50 mg/Kg p.o., dosed 1-4 h before LPS injected into both knees
Procedure: The effect on the synovial fluid concentration of TNF-alpha in an inflamed rat knee can be determined as follows: Female lewis rats are dosed by gavage with test compound in 0.1 ml cornstarch vehicle. One to four hours after administration of test compound 0.1 mg Lipopolysaccharide from E. coli 0127:B8 (Difco #3880-25-0) is injected into both knees. Two hours after intra-articular LPS injection, knees are lavaged with 0.1 ml saline and 2 lavages from same rat are pooled. TNF-alpha is measured using mouse TNF-alpha ELISA kit (Genzyme) which crossreacts with rat TNF-alpha Results are expressed as % inhibition of mean TNF-alpha concentration in synovial fluid from saline-injected knees.

[3] = tested on: TNF-alpha production by LPS-stimulated THP-1 cells; test: Effect on the production of soluble TNF-alpha by LPS-stimulated THP-1 cells; format: cell-based; conditions: Homo sapiens, 30 min pre-incubation, 100 ng/ml LPS for 4 hours, ELISA
Procedure: The effect on the production of soluble TNF-alpha by LPS-stimulated THP-1 cells can be determined as follows: Tissue culture medium used is RPM 1640 (Gibco cat #11875-036) containing 10% fetal calf serum, 1% penicillin and streptomycin. TBP-1 cells (ATCC #202-TIB) at 1×10+5 cells/well are added to 100 μl medium or test compound. Cells are pre-incubated with compound for 30 minutes in a 37° C. humidified chamber with 5% CO2 and then stimulated with 100 ng/ml of LPS (Sigma cat #L-4391) for 4 hours. Plates are then centrigued and […] of conditioned medium for TNF analysis is harvested. The amount of TNF-alpha in control and test cultures is determined by ELISA using recombinant TNF-alpha for the standard curve, using TNF ELISA plates (Genzyme) for TNF analysis. Absorbance readings and data calculations are performed on a Molecular Devices plate reader. Results are expressed in IC50 's of test compound.

[4] = tested on: collagen-II induced arthritis in mice; test: Collagen II induced arthritis model in mice; format: in vivo; conditions: mouse, 100 mg/Kg p.o.
Excerpt: Antiinflammatory activity can be determined in standard inflammation and arthritic animal models well-known in the art, e.g. the adjuvant arthritis model in rats and the collagen II induced arthritis model in mice [Mediators of […]. 1, 273-279 (1992)].

[5] = target: T2, recombinant human stromelysin (Homo sapiens, UniProt P08254); test: Inhibition of stromelysin activity (hydrolysis of Substance P); format: biochemical; conditions: 30 min at 37° C.
T2 construct: recombinant human stromelysin (mol. wt. 45-47 kDa, 2 Units)
T2 sequence (P08254 100-477): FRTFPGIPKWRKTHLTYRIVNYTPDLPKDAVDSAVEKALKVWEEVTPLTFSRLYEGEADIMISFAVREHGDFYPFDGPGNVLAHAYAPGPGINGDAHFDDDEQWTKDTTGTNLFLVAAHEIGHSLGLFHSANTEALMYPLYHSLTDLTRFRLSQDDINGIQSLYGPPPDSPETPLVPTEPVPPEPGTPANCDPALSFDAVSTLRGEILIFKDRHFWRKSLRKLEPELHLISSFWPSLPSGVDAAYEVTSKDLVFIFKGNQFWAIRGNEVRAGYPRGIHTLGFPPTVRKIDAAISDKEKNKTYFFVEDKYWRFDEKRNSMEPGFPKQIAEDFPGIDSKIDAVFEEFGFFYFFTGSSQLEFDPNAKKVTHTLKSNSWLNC
Procedure: One test to determine the inhibition of stromelysin activity is based on its hydrolysis of Substance P using a modified procedure of Harrison et al (Harrison, […]., and Stein R., A semicontinuous, high performance chromatography based assay for stromelysin, Anal. Biochem. 18, 110-113 (1989)). In this assay, Substance P is hydrolyzed by recombinant human stromelysin to generate a fragment, Substance P 7-11, which can be quantitated by HPLC. In a typical assay, a 10 mM stock solution of a compound to be tested is diluted in the assay buffer to 50 μM, mixed 1:1 with 8 μg recombinant human stromelysin (mol. wt. 45-47 kDa, 2 Units; where 1 Unit produces […] of Substance P 7-11 in 30 minutes) and incubated along with 0.5 mM Substance P in a final volume of 0.125 ml for 30 minutes at 37° C. The reaction is stopped by adding 10 mM EDTA and Substance P 7-11 is quantified on RP-8 HPLC. The IC50 for inhibition of stromelysin activity and Ki are calculated from control reaction without the inhibitor.

[6] = tested on: TNF-alpha (plasma); test: Effect on the plasma concentration of TNF-alpha in the mouse following intravenous injection of endotoxin; format: in vivo, mouse (Female Balb-CbyJ); conditions: about 50 mg/Kg p.o., dosed 1-4 h before 0.1 mg/kg LPS i.v.
Procedure: The effect on the plasma concentration of TNF-alpha in the mouse following intravenous injection of endotoxin can be determined as follows:
Female Balb-CbyJ mice are dosed by gavage with test compound in 0.1 ml cornstarch vehicle/10 grams body weight. One to four hours after administration of test compound, 0.1 mg/kg Lipopolysaccharide from E. coli 0127:B8 (Difco #3880-25-0) in saline is injected i.v. One hour after i.v. injection of LPS, blood is collected for determination of plasma TNF-alpha using mouse TNF-alpha ELISA kit (Genzyme). Eight mice are used per treatment group. Results are expressed as % inhibition of mean TNF-alpha concentration in control mice.

Row | SMILES | IC50 [1] [nM] | reduction of TNF-α concentration in the synovial fluid [2] | IC50 [3] [nM] | inhibition of collagen-II induced arthritis in mice [4] | IC50 [5] [nM] | % inhibition of mean plasma TNF-alpha concentration in control mice [6] [%]
1 | CCCO[C@H]1CC[C@H]([C@H](C(=O)NO)N(Cc2ccncc2)S(=O)(=O)c2ccc(OCC)cc2)CC1.Cl [2(u), N-hydroxy-2(R)-[(4ethoxybenzenesulfonyl)(4-picolyl)amino]-2-(trans-4-propoxycyclohexyl)acetamide hydrochloride] | ~45 | ~98% | ~2500 | effective in inhibiting collagen-II induced arthritis | ~11 | 
2 | CCCO[C@H]1CC[C@H]([C@H](C(=O)NO)N(Cc2ccncc2)S(=O)(=O)c2ccc(OC)cc2)CC1 [Example 1, hydrochloride] | ~80 | about 70% | ~2500 | effective in inhibiting collagen-II induced arthritis | ~16 | 50
